Reference: patent publication US20240174636A1, “NOVEL INDOLEAMINE 2,3-DIOXYGENASE INHIBITORS, PROCESSES FOR THE PREPARATION THEREOF AND PHARMACEUTICAL COMPOSITIONS COMPRISING THE SAME” (YUHAN CORPORATION, priority 2021, published 2024)

The compounds below were run against IDO1 (Homo sapiens, UniProt P14902) (assay: IDO1 cellular activity using HEK293 cells transfected with IDO1 expression vector). Settings: 24 h compound incubation, read-out: Inhibitory Activity (IC50).
Format: cell-based
Parameters: host or cells: HEK293 cells, transient transfection with Lipofectamine 2000
Protocol: HEK293 cells were seeded at a density of 30000 cells/well in 100 μl of a culture medium (DMEM supplemented with 10% FBS, penicillin 100 U/ml, and streptomycin 100 μg/ml) in a tissue culture-treated 96 well plate. The cells were cultured in a 5% carbon dioxide incubator for 24 hours, transfected with the IDO1 expression vector (component A in IDO1 cell-based assay kit, catalog #72031, BPS Bioscience) using Lipofectamine 2000 (Life Technologies, #11668027), and then cultured for 24 hours in a 5% carbon dioxide incubator to express the IDO protein.
The activities were measured using a IDO1 cell-based assay kit (catalog #72031, BPS Bioscience). Specifically, an assay medium was prepared by diluting IDO1 assay medium substrate 1 and IDO1 assay medium supplement 2 in a culture medium at a ratio of 1:100, respectively. The test compounds were diluted to the predetermined concentrations in the fresh assay medium. After removing the culture medium using a multi-pipet, 200 μl of each assay medium containing the test material was added into respective well, followed by incubating in a 5% carbon dioxide incubator for 24 hours. The next day, 140 μl of culture medium from each well was transferred to a new 96-well plate. 10 μl of 6.1N trichloroacetic acid was added into each well, which was then cultured in a 50° C. incubator for 30 minutes. The plate was centrifuged at 2500 rpm for 10 minutes to settle any sediment. A detection reagent solution was prepared by diluting the detection reagent (component D in IDO1 cell-based assay kit, catalog #72031 BPS Bioscience) 50-fold in acetic acid. 100 μl of the supernatant taken from the centrifuged plate was transferred to a new transparent 96-well plate and then 100 μl of the detection reagent solution was added thereto. After reacting at room temperature for 10 minutes, absorbance was measured at 480 nm wavelength. For analysis of the results, the absorbance (At) of the well containing HEK293 cells in which IDO protein was expressed without treatment of an inhibitor was 100%; and the absorbance (Ab) of the well containing HEK293 cells in which IDO protein was not expressed was 0. The % absorbance was calculated according to the following equation: % Absorbance=(A−Ab)/(At−Ab), A=absorbance of the well treated with the test compound.

Sequence of IDO1 (P14902 whole entry): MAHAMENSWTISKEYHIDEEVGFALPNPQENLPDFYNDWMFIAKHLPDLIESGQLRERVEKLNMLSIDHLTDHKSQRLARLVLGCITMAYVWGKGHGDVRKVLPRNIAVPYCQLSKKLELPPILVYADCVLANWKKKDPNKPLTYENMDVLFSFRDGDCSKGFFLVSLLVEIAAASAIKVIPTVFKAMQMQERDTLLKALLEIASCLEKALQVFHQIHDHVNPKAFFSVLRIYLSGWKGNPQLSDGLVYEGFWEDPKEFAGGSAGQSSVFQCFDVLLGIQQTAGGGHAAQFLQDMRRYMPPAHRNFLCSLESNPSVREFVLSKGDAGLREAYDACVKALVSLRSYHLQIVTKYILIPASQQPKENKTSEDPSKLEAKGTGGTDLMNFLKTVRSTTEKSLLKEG

SMILES	IC50 [nM]
C[C@H](C[C@H]1CC[C@H](c2ccnc3ccc(F)cc32)CC1)Nc1nc(Cl)nc2c(F)cccc12 [Example 50, 2-chloro-8-fluoro-N-((R)-1-((trans)-4-(6-fluoroquinolin-4-yl)cyclohexyl)propan-2-yl)quinazolin-4-amine]	62.3
COc1cccc2c(N[C@H](C)C[C@H]3CC[C@@H](c4ccnc5ccc(F)cc54)CC3)nc(Cl)nc12 [Example 70, 2-chloro-N-((R)-1-((cis)-4-(6-fluoroquinolin-4-yl)cyclohexyl)propan-2-yl)-8-methoxyquinazolin-4-amine]	114
C[C@H](C[C@H]1CC[C@@H](c2ccnc3ccc(F)cc32)CC1)Nc1nc(Cl)nc2ccc(F)cc12 [Example 60, 2-chloro-6-fluoro-N-((R)-1-((cis)-4-(6-fluoroquinolin-4-yl)cyclohexyl)propan-2-yl)quinazolin-4-amine]	61.1
COc1ccc2c(N[C@H](C)C[C@H]3CC[C@@H](c4ccnc5ccc(F)cc54)CC3)nc(Cl)nc2c1 [Example 67, 2-chloro-N-((R)-1-((cis)-4-(6-fluoroquinolin-4-yl)cyclohexyl)propan-2-yl)-7-methoxyquinazolin-4-amine]	47.5
C[C@H](C[C@H]1CC[C@@H](c2ccnc3ccc(F)cc32)CC1)Nc1nc(Cl)nc2ccc(Cl)cc12 [Example 61, 2,6-dichloro-N-((R)-1-((cis)-4-(6-fluoroquinolin-4-yl)cyclohexyl)propan-2-yl)quinazolin-4-amine]	406
Cc1ccc2c(N[C@H](C)C[C@H]3CC[C@H](c4ccnc5ccc(F)cc54)CC3)nc(Cl)nc2c1 [Example 57, 2-chloro-N-((R)-1-((trans)-4-(6-fluoroquinolin-4-yl)cyclohexyl)propan-2-yl)-7-methylquinazolin-4-amine]	25.2
C[C@H](C[C@H]1CC[C@@H](c2ccnc3ccc(F)cc32)CC1)Nc1nc(Cl)nc2cc(Cl)ccc12 [Example 40, 2,7-dichloro-N-((R)-1-((cis)-4-(6-fluoroquinolin-4-yl)cyclohexyl)propan-2-yl)quinazolin-4-amine]	21.9
C[C@H](C[C@H]1CC[C@@H](c2ccnc3ccc(F)cc32)CC1)Nc1nc(Cl)nc2ccccc12 [Example 38, 2-chloro-N-((R)-1-((cis)-4-(6-fluoroquinolin-4-yl)cyclohexyl)propan-2-yl)quinazolin-4-amine]	23.7
C[C@H](C[C@H]1CC[C@@H](c2ccnc3ccc(F)cc32)CC1)Nc1nc2cc(F)c(Cl)cc2o1 [Example 43, 6-chloro-5-fluoro-N-((R)-1-((cis)-4-(6-fluoroquinolin-4-yl)cyclohexyl)propan-2-yl)benzo[d]oxazol-2-amine]	6.3
C[C@H](C[C@H]1CC[C@@H](c2ccnc3ccc(F)cc32)CC1)Nc1nc2ccc(OCCF)cc2o1 [Example 45, 6-(2-fluoroethoxy)-N-((R)-1-((cis)-4-(6-fluoroquinolin-4-yl)cyclohexyl)propan-2-yl)benzo[d]oxazol-2-amine]	5.5
C[C@H](C[C@H]1CC[C@@H](c2ccnc3ccc(F)cc32)CC1)Nc1nc2ccc(F)c(F)c2o1 [Example 47, 6,7-difluoro-N-((R)-1-((cis)-4-(6-fluoroquinolin-4-yl)cyclohexyl)propan-2-yl)benzo[d]oxazol-2-amine]	5.5
COc1cccc2c(N[C@H](C)C[C@H]3CC[C@H](c4ccnc5ccc(F)cc54)CC3)nc(Cl)nc12 [Example 52, 2-chloro-N-((R)-1-((trans)-4-(6-fluoroquinolin-4-yl)cyclohexyl)propan-2-yl)-8-methoxyquinazolin-4-amine]	260
C[C@H](C[C@H]1CC[C@H](c2ccnc3ccc(F)cc32)CC1)Nc1nc(Cl)nc2c(OC(F)(F)F)cccc12 [Example 53, 2-chloro-N-((R)-1-((trans)-4-(6-fluoroquinolin-4-yl)cyclohexyl)propan-2-yl)-8-(trifluoromethoxy)quinazolin-4-amine]	57.4
C[C@H](C[C@H]1CC[C@@H](c2ccnc3ccc(F)cc32)CC1)Nc1nc(Cl)nc2c(F)cccc12 [Example 69, 2-chloro-8-fluoro-N-((R)-1-((cis)-4-(6-fluoroquinolin-4-yl)cyclohexyl)propan-2-yl)quinazolin-4-amine]	18.8
C[C@H](C[C@H]1CC[C@H](c2ccnc3ccc(F)cc32)CC1)Nc1nc(Cl)nc2cc(C(F)(F)F)ccc12 [Example 58, 2-chloro-N-((R)-1-((trans)-4-(6-fluoroquinolin-4-yl)cyclohexyl)propan-2-yl)-7-(trifluoromethyl)quinazolin-4-amine]	16.8
COc1ccc2c(N[C@H](C)C[C@H]3CC[C@H](c4ccnc5ccc(F)cc54)CC3)nc(Cl)nc2c1 [Example 59, 2-chloro-N-((R)-1-((trans)-4-(6-fluoroquinolin-4-yl)cyclohexyl)propan-2-yl)-7-methoxyquinazolin-4-amine]	19.4
C[C@H](C[C@H]1CC[C@H](c2ccnc3ccc(F)cc32)CC1)Nc1nc(Cl)nc2ccc(Cl)cc12 [Example 49, 2,6-dichloro-N-((R)-1-((trans)-4-(6-fluoroquinolin-4-yl)cyclohexyl)propan-2-yl)quinazolin-4-amine]	72
C[C@H](C[C@H]1CC[C@@H](c2ccnc3ccc(F)cc32)CC1)Nc1nc(Cl)nc2c(OC(F)(F)F)cccc12 [Example 71, 2-chloro-N-((R)-1-((cis)-4-(6-fluoroquinolin-4-yl)cyclohexyl)propan-2-yl)-8-(trifluoromethoxy)quinazolin-4-amine]	276
C[C@H](C[C@H]1CC[C@H](c2ccnc3ccc(F)cc32)CC1)Nc1nc(Cl)nc2ccc(F)cc12 [Example 48, 2-chloro-6-fluoro-N-((R)-1-((trans)-4-(6-fluoroquinolin-4-yl)cyclohexyl)propan-2-yl)quinazolin-4-amine]	45.4
C[C@H](C[C@H]1CC[C@@H](c2ccnc3ccc(F)cc32)CC1)Nc1nc(Cl)nc2cc(C#N)ccc12 [Example 63, 2-chloro-4-(((R)-1-((cis)-4-(6-fluoroquinolin-4-yl)cyclohexyl)propan-2-yl)amino)quinazolin-7-carbonitrile]	27.5
C[C@H](C[C@H]1CC[C@H](c2ccnc3ccc(F)cc32)CC1)Nc1nc(Cl)nc2cc(Br)ccc12 [Example 56, 7-bromo-2-chloro-N-((R)-1-((trans)-4-(6-fluoroquinolin-4-yl)cyclohexyl)propan-2-yl)quinazolin-4-amine]	19.3
Cc1ccc2c(N[C@H](C)C[C@H]3CC[C@@H](c4ccnc5ccc(F)cc54)CC3)nc(Cl)nc2c1 [Example 65, 2-chloro-N-((R)-1-((cis)-4-(6-fluoroquinolin-4-yl)cyclohexyl)propan-2-yl)-7-methylquinazolin-4-amine]	16.1
C[C@H](C[C@H]1CC[C@H](c2ccnc3ccc(F)cc32)CC1)Nc1nc(Cl)nc2cc(C#N)ccc12 [Example 55, 2-chloro-4-(((R)-1-((trans)-4-(6-fluoroquinolin-4-yl)cyclohexyl)propan-2-yl)amino)quinazolin-7-carbonitrile]	28.2
C[C@H](C[C@H]1CC[C@@H](c2ccnc3ccc(F)cc32)CC1)Nc1nc(Cl)nc2cc(Br)ccc12 [Example 64, 7-bromo-2-chloro-N-((R)-1-((cis)-4-(6-fluoroquinolin-4-yl)cyclohexyl)propan-2-yl)quinazolin-4-amine]	38.8
C[C@H](C[C@H]1CC[C@@H](c2ccnc3ccc(F)cc32)CC1)Nc1nc2c(Cl)cccc2s1 [Example 35, 4-chloro-N-((R)-1-((cis)-4-(6-fluoroquinolin-4-yl)cyclohexyl)propan-2-yl)benzo[d]thiazol-2-amine]	105
C[C@H](C[C@H]1CC[C@@H](c2ccnc3ccc(F)cc32)CC1)Nc1nncc2cc(Cl)ccc12 [Example 39, 6-chloro-N-((R)-1-((cis)-4-(6-fluoroquinolin-4-yl)cyclohexyl)propan-2-yl)phthalazin-1-amine]	9.7
C[C@H](C[C@H]1CC[C@@H](c2ccnc3ccc(F)cc32)CC1)Nc1nccc2cc(Cl)ccc12 [Example 34, 6-chloro-N-((R)-1-((cis)-4-(6-fluoroquinolin-4-yl)cyclohexyl)propan-2-yl)isoquinolin-1-amine]	68.6
C[C@H](C[C@H]1CC[C@H](c2ccnc3ccc(F)cc32)CC1)Nc1nc(Cl)nc2c(Cl)cccc12 [Example 51, 2,8-dichloro-N-((R)-1-((trans)-4-(6-fluoroquinolin-4-yl)cyclohexyl)propan-2-yl)quinazolin-4-amine]	124
C[C@H](C[C@H]1CC[C@@H](c2ccnc3ccc(F)cc32)CC1)Nc1nc(Cl)nc2c(Cl)cccc12 [Example 68, 2,8-dichloro-N-((R)-1-((cis)-4-(6-fluoroquinolin-4-yl)cyclohexyl)propan-2-yl)quinazolin-4-amine]	50.5
